Patent publication US20130072459A1, “PHARMACEUTICAL COMPOSITION FOR THE PREVENTION OR THE TREATMENT OF NON-ALCOHOLIC FATTY LIVER DISEASE AND THE METHOD FOR PREVENTION OR TREATMENT OF NON-ALCOHOLIC FATTY LIVER DISEASE USING THE SAME” (priority 2010, published 2013)

Experiments:
[1] = tested on: high fat diet-induced simple steatosis; assay: Preventive effects on high fat diet-induced simple steatosis in mice (drug-mixed diet, 8/16/24 weeks); format: in vivo, C57BL/6 mice; conditions: for serum alanine aminotransferase (ALT), result in words: at 16 weeks and 24 weeks; for serum alanine aminotransferase (ALT), result in words / hepatic triglyceride content, result in words: vs high fat diet-fed group; for hepatic triglyceride content, result in words: hepatic triglyceride analysis and histological analysis
Procedure: 6-week old male C57BL/6 mice were stabilized and then divided into 5 groups. One group was given a standard diet containing 10% fat (trade name: D12450B, manufactured by Research Diets), and one group was given a high fat diet containing 60% fat (trade name: D12492, manufactured by Research Diets). Remaining 3 groups as drug-treated groups were given a drug-mixed diet specially formulated by mixing a high fat diet and a drug. With regard to tartrate of Compound 1, in order to supply 100 mg/kg and 300 mg/kg which are daily target doses of tartrate of Compound 1 based on the daily average high fat diet consumption amount, diets were formulated by mixing a high fat diet and 0.2% by weight and 0.5% by weight of tartrate of Compound 1, respectively. With regard to sitagliptin phosphate, in order to supply 300 mg/kg which is a daily target dose based on the daily average high fat diet consumption amount, a diet was formulated by mixing a high fat diet and about 0.5% by weight of sitagliptin phosphate. Individual drug-treated groups were given the drug-mixed diets thus formulated. 8 weeks, 16 weeks, and 24 weeks after a supply of each diet, animals were dissected and sera were separated. Then, serum ALT levels (alanine aminotransferase, GPT, glutamic pyruvate transaminase) were measured using a blood analyzer (Table 1 and FIG. 1). The excised liver was homogenized in a 5(v/v) % Triton-X solution, and a triglyceride working reagent [which was prepared by mixing a free glycerol reagent (F6428, Sigma) and a triglyceride reagent (T2449, Sigma) in a ratio of 4:1(v/v)] was added thereto, followed by measurement of an absorbance at 540 nm to determine the content of triglyceride (Table 1 and FIG. 2). In addition, in order to observe histological fat distribution, a portion of the excised liver was fixed in a 10(v/v) % formalin solution and then a tissue sample was prepared, followed by hematoxylin & eosin staining and photographing using an image analysis program (computerized image analysis) (FIG. 3, the violet-stained portion represents a normal liver tissue, and white-stained portion represents lipid droplets).

[2] = tested on: high fat diet-induced simple steatosis; assay: Non-alcoholic fatty liver-preventing effects on high fat diet-induced simple steatosis in mice (oral, 28 days); format: in vivo, C57BL/6 mice; conditions: for Triglyceride increase inhibition (%) relative to high fat diet-fed group / Triglyceride increment (%) relative to standard diet-fed group: 28 days, high fat diet; for lipid droplets in liver tissue sample (histological evaluation), result in words: HE staining, FIG. 8; for maximum decrement of the hepatic triglyceride content relative to the high fat diet-fed group: maximum over the doses tested
Procedure: 7-week old male C57BL/6 mice were stabilized and then divided into 9 groups (n=9) according to the body weight and blood glucose level. A standard diet-fed group and a high fat diet-fed group were orally administered a vehicle solution (0.5% MC (methylene cellulose)) of each diet once a day at a dose of 10 ml/kg, and the remaining groups were orally given once a day for 28 days a high fat diet in conjunction with tartrate of Compound 1 at doses of 30, 100 and 300 mg/kg, sitagliptin phosphate at doses of 100 and 300 mg/kg, and vildagliptin at doses of 100 mg/kg and 300 mg/kg, respectively, according to the designated groups. 24 hours after the final oral administration, animals were dissected and the excised liver was homogenized in a 5(v/v) % Triton-X solution to which a triglyceride working reagent was then added, followed by measurement of an absorbance at 540 nm to determine the content of triglyceride (Table 2). In addition, a portion of the excised liver was fixed in a 10(v/v) % formalin solution and then a tissue sample was prepared, followed by hematoxylin & eosin(HE) staining and photographing (FIG. 8).

[3] = tested on: activated hepatic stellate cells; assay: Expression of activity indicator proteins (TGFβ1, α-SMA) in activated hepatic stellate cells, Western blot; format: cell-based, rat (Wistar); conditions: for 1 ng/mL TGFβ1-induced protein expression inhibition rate, TGFβ1 / 1 ng/mL TGFβ1-induced protein expression inhibition rate, α-SMA: 100 μM compound, 7 days, N = 3, corrected by β-actin; for protein expression levels of TGFβ1 and α-SMA, result in words: hTGF-β1-activated rat hepatic stellate cells
Procedure: An inhibitory action of the compounds of the present invention on the activation of hepatic stellate cells was tested according to the following cell culture method. Male rats (Wistar rats), weighing 500 to 700 g, were anesthetized, followed by an abdominal incision, and cannulae were connected to hepatic portal veins, followed by sequential perfusion with a Hank's Balanced Salt Solution (HBSS) containing heparin and an HBSS containing type 1 collagenase. After the perfusion was complete, the liver was excised, ground with surgical scissors, and added to an HBSS containing type 1 collagenase, followed by shaking culture at 37° C. for 15 minutes. The completely ground liquid-state liver tissue was passed through gauze and centrifuged at 500 g for 10 minutes. The resulting mingled cell precipitate was washed with a phosphate buffer, followed by centrifugation at 100 g for 5 minutes, and the supernatant was collected. The supernatant was further centrifuged at 500 g for 10 minutes to obtain a precipitate to which a 9:1 (v/v) mixture of a Ficoll liquid (GE Healthcare) and a Percoll liquid (GE Healthcare) was added, followed by mixing. A phosphate buffer was gently placed on the mixed layer, followed by centrifugation at 1,400 g for 15 minutes. Then, the cell layer formed between the upper layer and the lower layer was recovered and washed once with a Dulbecco's Modified Eagle Medium (DMEM) containing 10(v/v) % fetal bovine serum. The resulting cells were added at a cell density of 3.1×10^5 cells/cm^2, the medium was exchanged with a fresh medium after 24 hours, and cultured for 7 days with exchange of the medium at intervals of 2 to 3 days. Then, the drugs were treated at specified concentrations in a medium containing 1 ng/ml of a human transforming growth factor (TGF) β1 and a medium containing no TGF β1. TGF β1 was dissolved in dimethylsulfoxide (DMSO) to a concentration 1.000-fold higher than the desired treatment concentration of the drug, 1.000-fold diluted in a medium to be a 1-fold (1×) volume, and then treated on cells. After 7 days of the drug treatment, the medium was harvested and washed with a phosphate buffer. A buffer containing a surfactant was added thereto and the cells were lysed. Then, proteins were quantified, electrophoresed on a 4-12% Bis-Tris gel (Invitrogen), and transferred to a nitrocellulose membrane. The transferred proteins were reacted with primary antibodies specific for α-smooth muscle actin (α-SMA) or TGFβ1, and then reacted with horse radish peroxidase-conjugated specific secondary antibodies. The expression level of the target protein was confirmed using a chemiluminescent liquid and corrected in terms of actin (β-actin) expression level (FIG. 9). The decrement of observed protein expression by 100 μM of individual compounds of the present invention was expressed as a percentage drug-induced decrement, based an increment of protein expression in the TGFβ1-treated positive control group relative to the negative control group to which only DMSO was added (Table 3).

[4] = 8 weeks, high fat diet + 0.5% drug (target 300 mg/kg/day)
[5] = 16 weeks, high fat diet + 0.5% drug (target 300 mg/kg/day)
[6] = 24 weeks, high fat diet + 0.5% drug (target 300 mg/kg/day)
[7] = 8 weeks, high fat diet + 0.2% drug (target 100 mg/kg/day)
[8] = 16 weeks, high fat diet + 0.2% drug (target 100 mg/kg/day)
[9] = 24 weeks, high fat diet + 0.2% drug (target 100 mg/kg/day)

Row | SMILES | Hepatic TG [1, 4] [mg/g wet liver] | Plasma ALT [1, 4] [U/L] | Hepatic TG [1, 5] [mg/g wet liver] | Plasma ALT [1, 5] [U/L] | Hepatic TG [1, 6] [mg/g wet liver] | Plasma ALT [1, 6] [U/L] | serum alanine aminotransferase (ALT), result in words [1] | hepatic triglyceride content, result in words [1] | Triglyceride increase inhibition (%) relative to high fat diet-fed group ([2]; 100 mg/kg oral once a day) [%] | Triglyceride increment (%) relative to standard diet-fed group ([2]; 100 mg/kg oral once a day) [%] | Triglyceride increase inhibition (%) relative to high fat diet-fed group ([2]; 300 mg/kg oral once a day) [%] | Triglyceride increment (%) relative to standard diet-fed group ([2]; 300 mg/kg oral once a day) [%] | lipid droplets in liver tissue sample (histological evaluation), result in words [2] | maximum decrement of the hepatic triglyceride content relative to the high fat diet-fed group [2] [%] | 1 ng/mL TGFβ1-induced protein expression inhibition rate, TGFβ1 [3] [%] | 1 ng/mL TGFβ1-induced protein expression inhibition rate, α-SMA [3] [%] | protein expression levels of TGFβ1 and α-SMA, result in words [3] | also measured
1 | N[C@@H](CC(=O)N1CCn2c(nnc2C(F)(F)F)C1)Cc1cc(F)c(F)cc1F [sitagliptin phosphate, sitagliptin] | 11.8 ± 2.7 | 26.5 ± 1.8 | 10.0 ± 1.2 | 22.2 ± 1.3 | 36.8 ± 6.6 | 27.0 ± 1.7 | significant decreases | significant decrease | 61 | 21 | 15 | 45 | reduction of lipid droplets | 61 | −6 ± 51.9 | 46 ± 7.3 | lowered | 
2 | CC(C)(C)OC[C@@H]1C(=O)NCCN1C(=O)C[C@H](N)Cc1cc(F)c(F)cc1F [tartrate of Compound 1, (R)-4-[(R)-3-amino-4-(2,4,5-trifluorophenyl)-butanoyl]-3-(t-butoxymethyl)piperazin-2-one] | 7.4 ± 2.0 | 39.3 ± 3.6 | 15.8 ± 2.0 | 27.5 ± 1.5 | 15.1 ± 3.5 | 43.8 ± 4.3 | significant decreases | significant decrease | 12 | 47 | 81 | 11 | reduction of lipid droplets | 81 | 78 ± 17.2 | 25 ± 1.9 | lowered | Hepatic TG [1, 7]: 15.5 ± 2.0 mg/g wet liver; Plasma ALT [1, 7]: 20.6 ± 0.9 U/L; Hepatic TG [1, 8]: 21.5 ± 0.7 mg/g wet liver; Plasma ALT [1, 8]: 20.5 ± 1.2 U/L; Hepatic TG [1, 9]: 38.2 ± 5.8 mg/g wet liver; Plasma ALT [1, 9]: 37.5 ± 4.2 U/L; Triglyceride increase inhibition (%) relative to high fat diet-fed group ([2]; 30 mg/kg oral once a day): 34%; Triglyceride increment (%) relative to standard diet-fed group ([2]; 30 mg/kg oral once a day): 35%; concentration dependence of protein expression decrement of TGFβ1 and α-SMA, result in words ([3]; FIG. 9): increased with a higher concentration
